This experiment concerns the target T1, human liver GK (Homo sapiens, UniProt P35557).
T1 construct: GST (glutathione S-transferase) (N); made in house; host or cells: E. coli
T1 sequence (P35557 1-466 isoform P35557-2): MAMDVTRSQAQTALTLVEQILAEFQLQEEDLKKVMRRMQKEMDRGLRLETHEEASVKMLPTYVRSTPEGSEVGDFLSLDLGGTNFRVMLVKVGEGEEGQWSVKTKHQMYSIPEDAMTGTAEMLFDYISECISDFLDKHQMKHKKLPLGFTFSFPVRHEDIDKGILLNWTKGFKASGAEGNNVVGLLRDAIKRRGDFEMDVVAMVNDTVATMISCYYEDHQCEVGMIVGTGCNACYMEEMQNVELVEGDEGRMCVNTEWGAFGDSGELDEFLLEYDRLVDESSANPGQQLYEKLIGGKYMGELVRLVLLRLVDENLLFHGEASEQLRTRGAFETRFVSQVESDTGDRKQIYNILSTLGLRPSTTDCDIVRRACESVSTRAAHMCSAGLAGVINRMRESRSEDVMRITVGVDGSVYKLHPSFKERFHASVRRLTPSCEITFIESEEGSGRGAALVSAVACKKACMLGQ
The experiment is described as follows: GK activation test. The format is biochemical. As to conditions: test compound concentration needed to activate 50% of maximum activation ability; 4 mM 14C-labeled glucose, 2 mM ATP, room temperature, 20 minutes. In outline: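 GST-tagged human liver GK from E. coli (0.24 μg/well) with 4 mM 14C-glucose, 2 mM ATP in Hepes-KOH pH 7.1, KCl, MgCl2, DTT, 1% DMSO, 20 min room temperature. Labeled glucose 6-phosphate captured on anion resin, eluted and counted. EC50 = concentration giving half of maximal activation.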

Our source for the EC50 values is US8822503B2, “2-pyridone compounds” (Taisho Pharmaceutical Co., Ltd, priority 2009, dated 2014).

Take `CCSc1ccc(/C(=C\[C@H]2CCC(=O)N2)c2ccc(Cl)c(=O)[nH]2)cc1Cl` [Example 4-27, 3-Chloro-6-{(E)-1-[3-chloro-4-(ethylsulfanyl)phenyl]-2-[(2R)-5-oxopyrrolidin-2-yl]ethenyl}pyridin-2(1H)-one]: the EC50 (in general, the concentration needed to bring the measured effect to its halfway point) is 10 to 500 nM.

Compound `CC(C)COCCc1ccc(/C(=C\[C@H]2CCC(=O)N2)c2ccc(Cl)c(=O)[nH]2)cc1` [Example 4-28, 3-Chloro-6-{(E)-1-{4-[2-(2-methylpropoxy)ethyl]phenyl}-2-[(2R)-5-oxopyrrolidin-2-yl]ethenyl}pyridin-2(1H)-one] gave an EC50 of 500 to 3000 nM.

With `CC(C)Cc1ccc(/C(=C\[C@H]2CCC(=O)N2)c2ccc(Cl)c(=O)[nH]2)cc1` [Example 4-29, 3-Chloro-6-{(E)-1-[4-(2-methylpropyl)phenyl]-2-[(2R)-5-oxopyrrolidin-2-yl]ethenyl}pyridin-2(1H)-one], the EC50 fell in the range of 500 to 3000 nM.

As to `O=C1CC[C@H](/C=C(\c2ccc(OC(F)(F)F)cc2)c2ccc(Cl)c(=O)[nH]2)N1` [Example 4-30, 3-Chloro-6-{(E)-2-[(2R)-5-oxopyrrolidin-2-yl]-1-[4-(trifluoromethoxy)phenyl]ethenyl}pyridin-2(1H)-one], the EC50 is 500 to 3000 nM.

For `Cc1ccc(/C(=C\[C@H]2CCC(=O)N2)c2ccc(Cl)c(=O)[nH]2)c(C)c1` [Example 4-31, 3-Chloro-6-{(E)-1-(2,4-dimethylphenyl)-2-[(2R)-5-oxopyrrolidin-2-yl]ethenyl}pyridin-2(1H)-one], the EC50 lay in the range of 3000 to 10000 nM.

Regarding `CC(C)Oc1ccc(/C(=C\[C@H]2CCC(=O)N2)c2ccc(Cl)c(=O)[nH]2)cc1Cl` [Example 4-32, 3-Chloro-6-{(E)-1-[3-chloro-4-(propan-2-yloxy)phenyl]-2-[(2R)-5-oxopyrrolidin-2-yl]ethenyl}pyridin-2(1H)-one], the EC50 was in the range of 10 to 500 nM.

The compound `O=C1CC[C@H](/C=C(\c2ccc(SC3CCCC3)cc2)c2ccc(Cl)c(=O)[nH]2)N1` [Example 4-33, 3-Chloro-6-{(E)-1-[4-(cyclopentylsulfanyl)phenyl]-2-[(2R)-5-oxopyrrolidin-2-yl]ethenyl}pyridin-2(1H)-one] yielded a concentration for a half-maximal effect (EC50) of 10 to 500 nM.

For the compound `Cc1cc(/C(=C\[C@H]2CCC(=O)N2)c2ccc(Cl)c(=O)[nH]2)ccc1SC1CC1` [Example 4-34, 3-Chloro-6-{(E)-1-[4-(cyclopropylsulfanyl)-3-methylphenyl]-2-[(2R)-5-oxopyrrolidin-2-yl]ethenyl}pyridin-2(1H)-one], the concentration giving a half-maximal response (EC50) lay within 500 to 3000 nM.

In the case of `CSc1ccc(/C(=C\[C@H]2CCC(=O)N2)c2ccc(Cl)c(=O)[nH]2)cc1C(F)(F)F` [Example 4-35, 3-Chloro-6-{(E)-1-[4-(methylsulfanyl)-3-(trifluoromethyl)phenyl]-2-[(2R)-5-oxopyrrolidin-2-yl]ethenyl}pyridin-2(1H)-one], the EC50 fell in the range of 500 to 3000 nM.

In turn, `O=C1CC[C@H](/C=C(\c2cccc(SC3CC3)c2)c2ccc(Cl)c(=O)[nH]2)N1` [Example 4-36, 3-Chloro-6-{(E)-1-[3-(cyclopropylsulfanyl)phenyl]-2-[(2R)-5-oxopyrrolidin-2-yl]ethenyl}pyridin-2(1H)-one] returned a 50% effective concentration (EC50) of 3000 to 10000 nM.

`O=C1CC[C@H](/C=C(\c2ccc(SC3CC3)cc2)c2ccc(Cl)c(=O)[nH]2)N1` [Example 4-37, 3-Chloro-6-{(E)-1-[4-(cyclopropylsulfanyl)phenyl]-2-[(2R)-5-oxopyrrolidin-2-yl]ethenyl}pyridin-2(1H)-one] showed a 50% effective concentration (EC50) of 10 to 500 nM.

Regarding `O=C1CC[C@H](/C=C(\c2ccc(OCCCCO)c(Cl)c2)c2ccc(Cl)c(=O)[nH]2)N1` [Example 4-38, 3-Chloro-6-{(E)-1-[3-chloro-4-(4-hydroxybutoxy)phenyl]-2-[(2R)-5-oxopyrrolidin-2-yl]ethenyl}pyridin-2(1H)-one], the EC50 lay in the range of 10 to 500 nM.

`CSc1ccc(/C(=C\[C@H]2CCN(C(C)=O)C2)c2ccc(C3CC3)c(=O)[nH]2)cc1` [Example 4-39, 6-{(E)-2-[(3R)-1-Acetylpyrrolidin-3-yl]-1-[4-(methylsulfanyl)phenyl]ethenyl}-3-cyclopropylpyridin-2(1H)-one] showed a 50% effective concentration (EC50) of 10 to 500 nM.

For the compound `CCc1ccc(/C(=C\[C@H]2CCN(C(C)=O)C2)c2ccc(Cl)c(=O)[nH]2)cc1` [Example 4-40, 6-[(E)-2-[(3R)-1-Acetylpyrrolidin-3-yl]-1-(4-ethylphenyl)ethenyl]-3-chloropyridin-2(1H)-one], the EC50 is 500 to 3000 nM.

With `CCOc1ccc(/C(=C\[C@H]2CCN(C(C)=O)C2)c2ccc(Cl)c(=O)[nH]2)cc1Cl` [Example 4-41, 6-[(E)-2-[(3R)-1-Acetylpyrrolidin-3-yl]-1-(3-chloro-4-ethoxyphenyl)ethenyl]-3-chloropyridin-2(1H)-one], the EC50 is 500 to 3000 nM.

With `CSc1ccc(/C(=C\C2CCN(C(C)=O)CC2)c2ccc(C3CC3)c(=O)[nH]2)cc1` [Example 4-42, 6-{(E)-2-(1-Acetylpiperidin-4-yl)-1-[4-(methylsulfanyl)phenyl]ethenyl}-3-cyclopropylpyridin-2(1H)-one], the EC50 fell in the range of 3000 to 10000 nM.

With `CC(=O)N1CCC(/C=C(\c2ccc(S(C)(=O)=O)cc2)c2ccc(C3CC3)c(=O)[nH]2)CC1` [Example 4-43, 6-{(E)-2-(1-Acetylpiperidin-4-yl)-1-[4-(methylsulfonyl)phenyl]ethenyl}-3-cyclopropylpyridin-2(1H)-one], the EC50 fell in the range of 3000 to 10000 nM.

In turn, `CSc1ccc(/C(=C\C2CN(C(C)=O)C2)c2ccc(C3CC3)c(=O)[nH]2)cc1` [Example 4-44, 6-{(E)-2-(1-Acetylazetidin-3-yl)-1-[4-(methylsulfanyl)phenyl]ethenyl}-3-cyclopropylpyridin-2(1H)-one] came in with an EC50 of 500 to 3000 nM.

As to `CSc1ccc(/C(=C\[C@H]2CCC(=O)N2C)c2ccc(C3CC3)c(=O)[nH]2)cc1` [Example 4-45, 3-Cyclopropyl-6-{(E)-2-[(2R)-1-methyl-5-oxopyrrolidin-2-yl]-1-[4-(methylsulfanyl)phenyl]ethenyl}pyridin-2(1H)-one], the EC50 is 10 to 500 nM.

Compound `CCc1ccc(/C(=C\[C@H]2CCCN2C(C)=O)c2ccc(Cl)c(=O)[nH]2)cc1` [Example 4-47, 6-[(E)-2-[(2R)-1-Acetylpyrrolidin-2-yl]-1-(4-ethylphenyl)ethenyl]-3-chloropyridin-2(1H)-one] showed an EC50 of 500 to 3000 nM.

In turn, `CCOc1ccc(/C(=C\[C@H]2CCC(=O)N2)c2ccc(Cl)c(=O)[nH]2)cc1` [Example 4-48, 3-Chloro-6-{(E)-1-(4-ethoxyphenyl)-2-[(2R)-5-oxopyrrolidin-2-yl]ethenyl}pyridin-2(1H)-one] had an EC50 of 500 to 3000 nM.

Regarding `CCOc1ccc(/C(=C\[C@H]2CCC(=O)N2)c2ccc(Cl)c(=O)[nH]2)cc1F` [Example 4-49, 3-Chloro-6-{(E)-1-(4-ethoxy-3-fluorophenyl)-2-[(2R)-5-oxopyrrolidin-2-yl]ethenyl}pyridin-2(1H)-one], the half-maximal effective concentration (EC50) lay within 500 to 3000 nM.

`CCOc1ccc(/C(=C\[C@H]2CCC(=O)N2)c2ccc(Cl)c(=O)[nH]2)cc1C` [Example 4-50, 3-Chloro-6-{(E)-1-(4-ethoxy-3-methylphenyl)-2-[(2R)-5-oxopyrrolidin-2-yl]ethenyl}pyridin-2(1H)-one] gave an EC50 of 500 to 3000 nM.

In the case of `CCOc1ccc(/C(=C\[C@H]2CCC(=O)N2)c2ccc(Cl)c(=O)[nH]2)cc1C(F)(F)F` [Example 4-51, 3-Chloro-6-{(E)-1-[4-ethoxy-3-(trifluoromethyl)phenyl]-2-[(2R)-5-oxopyrrolidin-2-yl]ethenyl}pyridin-2(1H)-one], the EC50 lay within 500 to 3000 nM.

Compound `Cc1cc(/C(=C\[C@H]2CCC(=O)N2)c2ccc(Cl)c(=O)[nH]2)ccc1OCCCO` [Example 4-52, 3-Chloro-6-{(E)-1-[4-(3-hydroxypropoxy)-3-methylphenyl]-2-[(2R)-5-oxopyrrolidin-2-yl]ethenyl}pyridin-2(1H)-one] yielded an EC50 of 500 to 3000 nM.

Compound `CS(=O)(=O)c1ccc(/C(=C\[C@H]2CCC(=O)N2)c2ccc(C3CC3)c(=O)[nH]2)cc1` [Example 4-53, 3-Cyclopropyl-6-{(E)-1-[4-(methylsulfonyl)phenyl]-2-[(2R)-5-oxopyrrolidin-2-yl]ethenyl}pyridin-2(1H)-one] gave an EC50 of 10 to 500 nM.

Compound `Cc1cc(/C(=C\[C@H]2CCC(=O)N2)c2ccc(C3CC3)c(=O)[nH]2)ccc1S(=O)(=O)C1CC1` [Example 4-54, 3-Cyclopropyl-6-{(E)-1-[4-(cyclopropylsulfonyl)-3-methylphenyl]-2-[(2R)-5-oxopyrrolidin-2-yl]ethenyl}pyridin-2(1H)-one] registered an EC50 of 10 to 500 nM.

As to `Cc1cc(/C(=C\[C@H]2CCC(=O)N2)c2ccc(Cl)c(=O)[nH]2)ccc1S(=O)(=O)C1CC1` [Example 4-55, 3-Chloro-6-{(E)-1-[4-(cyclopropylsulfonyl)-3-methylphenyl]-2-[(2R)-5-oxopyrrolidin-2-yl]ethenyl}pyridin-2(1H)-one], the half-maximal effective concentration (EC50) is 10 to 500 nM.

`CS(=O)(=O)c1ccc(/C(=C\[C@H]2CCC(=O)N2)c2ccc(Cl)c(=O)[nH]2)cc1C(F)(F)F` [Example 4-56, 3-Chloro-6-{(E)-1-[4-(methylsulfonyl)-3-(trifluoromethyl)phenyl]-2-[(2R)-5-oxopyrrolidin-2-yl]ethenyl}pyridin-2(1H)-one] returned an EC50 of 500 to 3000 nM.
